From patent US10047081B2, “BACE1 inhibitors” (Hoffmann-La Roche Inc., priority 2015, dated 2018)

biological target: T1, BACE1 (Homo sapiens, UniProt P56817); test: Cellular Aβ-lowering assay (Abeta 40 AlphaLISA, HEK293 APP cells); assay type: cell-based; details: 18-20 hrs incubation, Aβ 40 in culture supernatant, read-out: BACE1 cell act. Aβ40 IC50
T1 construct: endogenous in cells; host or cells: HEK293 APP cells
Procedure: Cellular Aβ-Lowering Assay:
The Abeta 40 AlphaLISA Assay can be used. The HEK293 APP cells were seeded in 96 well Microtiter plates in cell culture medium (Iscove's, plus 10% (v/v) fetal bovine serum, penicillin/streptomycin) to about 80% confluency and the compounds were added at a 3× concentration in ⅓ volume of culture medium (final DMSO concentration was kept at 1% v/v). After 18-20 hrs incubation at 37° C. and 5% CO2 in a humidified incubator, the culture supernatants were harvested for the determination of Aβ 40 concentrations using Perkin-Elmer Human Amyloid beta 1-40 (high specificity) Kit (Cat#AL275C).
In a Perkin-Elmer White Optiplate-384 (Cat#6007290), 2 ul culture supernatants were combined with 2 μl of a 10× AlphaLISA Anti-hAβAcceptor beads + Biotinylated Antibody Anti-Aβ 1-40 Mix (50 μg/mL/5 nM). After 1 hour room temperature incubation, 16 μl of a 1.25× preparation of Streptavidin (SA) Donor beads (25 μg/mL) were added and incubated for 30 minutes in the Dark. Light Emission at 615 nm was then recorded using EnVision-Alpha Reader. Levels of Aβ 40 in the culture supernatants were calculated as percentage of maximum signal (cells treated with 1% DMSO without inhibitor). The IC50 values were calculated using the Excel XLfit software.

T1 sequence (P56817 46-501): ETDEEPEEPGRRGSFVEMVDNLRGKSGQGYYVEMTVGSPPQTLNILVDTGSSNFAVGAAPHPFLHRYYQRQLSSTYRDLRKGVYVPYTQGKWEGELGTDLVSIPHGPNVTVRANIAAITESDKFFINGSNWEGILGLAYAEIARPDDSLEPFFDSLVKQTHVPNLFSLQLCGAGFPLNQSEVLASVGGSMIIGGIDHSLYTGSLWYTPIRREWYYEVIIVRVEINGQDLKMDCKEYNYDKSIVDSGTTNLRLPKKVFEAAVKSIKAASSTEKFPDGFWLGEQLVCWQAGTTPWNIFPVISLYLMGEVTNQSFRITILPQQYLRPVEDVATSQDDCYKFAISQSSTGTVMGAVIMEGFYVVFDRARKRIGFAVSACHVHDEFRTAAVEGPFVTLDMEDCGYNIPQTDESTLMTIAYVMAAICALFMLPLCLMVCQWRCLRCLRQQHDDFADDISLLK

| SMILES | IC50 [nM] |
| --- | --- |
| COc1cnc(-c2cc(-c3ccc(F)c([C@]4(C)C[S@](=O)(=NC5CC5)C(C)(C)C(N)=N4)c3)on2)cn1 [Example 33, (1R,3R)-5-amino-1-(cyclopropylimino)-3-(2-fluoro-5-(3-(5-methoxypyrazin-2-yl)isoxazol-5-yl)phenyl)-3,6,6-trimethyl-3,6-dihydro-2H-1,4-thiazine 1-oxide] | 92 |
| COc1cnc(-c2cc(-c3ccc(F)c([C@]4(C)C[S@](=O)(=NCC(F)(F)F)C(C)(C)C(N)=N4)c3)on2)cn1 [Example 39, (1R,3R)-5-amino-3-(2-fluoro-5-(3-(5-methoxypyrazin-2-yl)isoxazol-5-yl)phenyl)-3,6,6-trimethyl-1-((2,2,2-trifluoroethyl)imino)-3,6-dihydro-2H-1,4-thiazine 1-oxide 2,2,2-trifluoroacetate] | 232 |
| CN=[S@@]1(=O)C[C@@](CF)(c2cc(-c3cc(-c4ncc(Br)cc4C)no3)ccc2F)N=C(N)C1(C)C [Example 15, (1R,3S)-5-amino-3-(5-(3-(5-bromo-3-methylpyridin-2-yl)isoxazol-5-yl)-2-fluorophenyl)-3-(fluoromethyl)-6,6-dimethyl-1-(methylimino)-3,6-dihydro-2H-1,4-thiazine 1-oxide 2,2,2-trifluoroacetate] | 344 |
| CN=[S@]1(=O)C[C@@](C)(c2cc(-c3cc(-c4cnc(OCC(F)F)cn4)no3)ccc2F)N=C(N)C1(C)C [Example 11, (1S,3R)-5-amino-3-(5-(3-(5-(2,2-difluoroethoxy)pyrazin-2-yl)isoxazol-5-yl)-2-fluorophenyl)-3,6,6-trimethyl-1-(methylimino)-3,6-dihydro-2H-1,4-thiazine 1-oxide 2,2,2-trifluoroacetate] | 51 |
| CN=[S@]1(=O)C[C@@](CF)(c2cc(-c3cc(-c4ncc(OC)cn4)no3)ccc2F)N=C(N)C1(C)C [Example 13, (1S,3S)-5-amino-3-(2-fluoro-5-(3-(5-methoxypyrimidin-2-yl)isoxazol-5-yl)phenyl)-3-(fluoromethyl)-6,6-dimethyl-1-(methylimino)-3,6-dihydro-2H-1,4-thiazine 1-oxide] | 106 |
| CN=[S@@]1(=O)C[C@@](CF)(c2cc(-c3cc(-c4ncc(Cl)cn4)no3)ccc2F)N=C(N)C1(C)C [Example 3, (1R,3S)-5-amino-3-(5-(3-(5-chloropyrimidin-2-yl)isoxazol-5-yl)-2-fluorophenyl)-3-(fluoromethyl)-6,6-dimethyl-1-(methylimino)-3,6-dihydro-2H-1,4-thiazine 1-oxide 2,2,2-trifluoroacetate] | 89 |
| CN=[S@@]1(=O)C[C@@](C)(c2cc(-c3cc(-c4cnc(O)cn4)no3)ccc2F)N=C(N)C1(C)C [Example 23, (1R,3R)-5-amino-3-(2-fluoro-5-(3-(5-hydroxypyrazin-2-yl)isoxazol-5-yl)phenyl)-3,6,6-trimethyl-1-(methylimino)-3,6-dihydro-2H-1,4-thiazine 1-oxide] | > 1000 |

Molecules with a lower IC50, results first:

| IC50 [nM] | SMILES |
| --- | --- |
| 37 | CC1(C)C(N)=N[C@](C)(c2cc(-c3cc(-c4ncc(Cl)cn4)no3)ccc2F)C[S@]1(=O)=NCC(F)(F)F [Example 40, (1R,3R)-5-amino-3-(5-(3-(5-chloropyrimidin-2-yl)isoxazol-5-yl)-2-fluorophenyl)-3,6,6-trimethyl-1-((2,2,2-trifluoroethyl)imino)-3,6-dihydro-2H-1,4-thiazine 1-oxide 2,2,2-trifluoroacetate] |
| 37 | [2H]C([2H])([2H])N=[S@@]1(=O)C[C@@](C)(c2cc(-c3cc(-c4ncc(CC)cn4)no3)ccc2F)N=C(N)C1(C)C [Example 26, (1R,3R)-3-[5-[3-(5-ethylpyrimidin-2-yl)isoxazol-5-yl]-2-fluoro-phenyl]-3,6,6-trimethyl-1-oxo-1-(trideuteriomethylimino)-2H-1,4-thiazin-5-amine 2,2,2-trifluoroacetate] |
| 3 | CN=[S@@]1(=O)C[C@@](C)(c2cc(-c3cc(-c4ncc(OC)cn4)no3)ccc2F)N=C(N)C1(C)C [Example 20, (1R,3R)-5-amino-3-(2-fluoro-5-(3-(5-methoxypyrimidin-2-yl)isoxazol-5-yl)phenyl)-3,6,6-trimethyl-1-(methylimino)-3,6-dihydro-2H-1,4-thiazine 1-oxide] |
| 20 | CN=[S@@]1(=O)C[C@@](C)(c2cc(-c3cc(-c4ncc(OC)cn4)no3)ccc2F)N=C(N)C12CCCC2 [Example 29, (6R,8R)-10-amino-8-(2-fluoro-5-(3-(5-methoxypyrimidin-2-yl)isoxazol-5-yl)phenyl)-8-methyl-6-(methylimino)-6-thia-9-azaspiro[4.5]dec-9-ene 6-oxide 2,2,2-trifluoroacetate] |
| 27 | CN=[S@]1(=O)C[C@@](C)(c2cc(-c3cc(-c4ncc(OCC(F)F)cn4)no3)ccc2F)N=C(N)C1(C)C [Example 19, (1S,3R)-3-[5-[3-[5-(2,2-difluoroethoxy)pyrimidin-2-yl]isoxazol-5-yl]-2-fluoro-phenyl]-3,6,6-trimethyl-1-methylimino-1-oxo-2H-1,4-thiazin-5-amine] |
| 9 | CN=[S@@]1(=O)C[C@@](C)(c2cc(-c3cc(-c4cnc(OCC(F)(F)F)cn4)no3)ccc2F)N=C(N)C1(C)C [Example 21, (1R,3R)-5-amino-3-(2-fluoro-5-(3-(5-(2,2,2-trifluoroethoxy)pyrazin-2-yl)isoxazol-5-yl)phenyl)-3,6,6-trimethyl-1-(methylimino)-3,6-dihydro-2H-1,4-thiazine 1-oxide 2,2,2-trifluoroacetate] |
| 20 | CN=[S@@]1(=O)C[C@@](C)(c2cc(-c3cn(-c4ccc(C#N)cn4)nn3)ccc2F)N=C(N)C1(C)C [Example 10, 6-(4-(3-((1R,3R)-5-amino-3,6,6-trimethyl-1-(methylimino)-1-oxido-3,6-dihydro-2H-1,4-thiazin-3-yl)-4-fluorophenyl)-1H-1,2,3-triazol-1-yl)nicotinonitrile 2,2,2-trifluoroacetate] |
